Test results: ChEMBL document CHEMBL5223078, “Proteases and Their Modulators in Cancer Therapy: Challenges and Opportunities” (J Med Chem, 2021)
pIC50: −log10 of the molar value. One block for each compound: values may come before it.

Legend:
[1] = target: von Hippel-Lindau disease tumor suppressor/GTPase KRas (Homo sapiens, UniProt P01116+P40337); experiment: Protac activity at VHL E3 ligase/KRAS G12 degradation in human MDA-MB-231 cells assessed as […] by western blot analysis; format: cell-based
Chain of von Hippel-Lindau disease tumor suppressor/GTPase KRas (P01116 whole entry): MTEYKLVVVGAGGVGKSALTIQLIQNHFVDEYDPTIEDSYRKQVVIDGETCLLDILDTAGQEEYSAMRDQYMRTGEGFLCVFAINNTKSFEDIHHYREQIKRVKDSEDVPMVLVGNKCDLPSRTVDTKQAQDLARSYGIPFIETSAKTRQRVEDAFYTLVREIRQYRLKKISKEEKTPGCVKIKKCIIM
Chain of von Hippel-Lindau disease tumor suppressor/GTPase KRas (P40337 whole entry): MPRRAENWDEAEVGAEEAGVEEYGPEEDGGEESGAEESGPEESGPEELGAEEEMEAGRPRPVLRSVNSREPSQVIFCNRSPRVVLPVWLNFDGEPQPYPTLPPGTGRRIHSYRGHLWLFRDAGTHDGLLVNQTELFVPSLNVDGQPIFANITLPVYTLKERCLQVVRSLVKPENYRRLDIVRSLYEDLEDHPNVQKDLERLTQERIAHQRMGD

[2] = target: Protein cereblon/Tyrosine-protein kinase BTK (Homo sapiens, UniProt Q06187+Q96SW2, C481S); experiment: Protac activity at CRBN (unknown origin)/BTK C481S mutant (unknown origin) assessed as BTK C481S mutant degradation; format: protein assay
Chain of Protein cereblon/Tyrosine-protein kinase BTK (Q06187 2-659 C481S limits assumed, stated change not applied): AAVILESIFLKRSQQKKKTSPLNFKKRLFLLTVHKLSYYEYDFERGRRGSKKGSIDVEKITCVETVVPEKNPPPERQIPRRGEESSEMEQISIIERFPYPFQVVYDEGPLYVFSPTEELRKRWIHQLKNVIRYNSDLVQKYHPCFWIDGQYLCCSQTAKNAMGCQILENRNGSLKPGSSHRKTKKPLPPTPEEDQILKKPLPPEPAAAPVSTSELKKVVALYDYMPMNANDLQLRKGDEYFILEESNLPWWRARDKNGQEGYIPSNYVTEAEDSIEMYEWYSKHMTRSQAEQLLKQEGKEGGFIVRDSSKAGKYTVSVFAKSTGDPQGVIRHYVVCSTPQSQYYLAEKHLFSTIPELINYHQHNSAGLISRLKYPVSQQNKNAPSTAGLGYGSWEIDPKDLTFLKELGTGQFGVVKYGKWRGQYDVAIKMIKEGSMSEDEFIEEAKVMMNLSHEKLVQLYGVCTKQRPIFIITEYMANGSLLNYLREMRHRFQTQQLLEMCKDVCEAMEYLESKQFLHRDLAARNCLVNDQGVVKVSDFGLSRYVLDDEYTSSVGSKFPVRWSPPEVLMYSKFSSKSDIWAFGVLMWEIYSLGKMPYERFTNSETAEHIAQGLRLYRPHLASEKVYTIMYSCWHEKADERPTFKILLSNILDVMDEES
Chain of Protein cereblon/Tyrosine-protein kinase BTK (Q96SW2 whole entry, stated change not applied): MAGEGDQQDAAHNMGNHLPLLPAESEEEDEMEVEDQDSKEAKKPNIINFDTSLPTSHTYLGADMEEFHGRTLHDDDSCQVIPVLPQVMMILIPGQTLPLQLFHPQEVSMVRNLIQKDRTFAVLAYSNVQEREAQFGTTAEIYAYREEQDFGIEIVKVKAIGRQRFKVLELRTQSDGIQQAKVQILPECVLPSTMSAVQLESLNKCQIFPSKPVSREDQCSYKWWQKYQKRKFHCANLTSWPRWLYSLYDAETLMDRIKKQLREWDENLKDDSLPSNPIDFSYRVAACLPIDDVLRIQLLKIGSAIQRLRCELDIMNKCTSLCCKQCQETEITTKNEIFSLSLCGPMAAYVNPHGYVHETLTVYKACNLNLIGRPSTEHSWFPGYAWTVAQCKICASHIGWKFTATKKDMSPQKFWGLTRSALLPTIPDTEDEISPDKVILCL

20S proteasome = experiment: Inhibition of 20S proteasome (unknown origin); format: protein-complex assay, Homo sapiens
MDA-MB-231 [3] = experiment: Antitumor activity against human MDA-MB-231 cells xenografted in mouse model assessed as reduction in ERRalpha level in mouse heart at 100 mg/kg, ip administered 3 times a day relative to control; format: functional; parameters: scale not given: the % may be the effect or the level left
MDA-MB-231 [4] = experiment: Antitumour activity against human MDA-MB-231 cells xenografted in mouse model assessed as reduction in ERRalpha level of tumor growth at 100 mg/kg, ip administered 3 times a day relative to control; format: functional; parameters: scale not given: the % may be the effect or the level left
MDA-MB-231 [5] = experiment: Antitumor activity against human MDA-MB-231 cells xenografted in mouse model assessed as reduction in ERRalpha level in mouse kidney at 100 mg/kg, ip administered 3 times a day relative to control; format: functional; parameters: scale not given: the % may be the effect or the level left
SUM-159-PT [6] = experiment: Cytotoxicity against human SUM159PT cells assessed as cell growth inhibition measured after 72 hrs by MTS assay; format: functional, cell-based
SUM-159-PT [7] = experiment: Inhibition of colony formation in human SUM159PT assessed as complete inhibition of cell growth measured after 48 hrs by crystal violet staining based analysis; format: functional
OCI-AML-3 = experiment: Cytotoxicity against human OCI-AML-3 cells assessed as cell growth inhibition measured after 72 hrs by spectrophotometry; format: functional, cell-based; conditions: OCI-AML-3, 72 h
OCI-AML2 = experiment: Cytotoxicity against human OCI-AML2 cells assessed as cell growth inhibition measured after 72 hrs by spectrophotometry; format: functional, cell-based; conditions: OCI-AML2, 72 h
HCT-116 = experiment: Antiproliferative activity against human HCT-116 cells assessed as reduction in cell viability at 200 nm measured after 72 hrs by MTS assay relative to control; format: functional
[8] = Cytotoxicity against human TEX cells assessed as cell growth inhibition measured after 72 hrs by spectrophotometry; format: functional, cell-based

Compound: C=C(F)C(=O)N1CCN(c2nc(OC[C@@H]3CCCN3CCCOCCC(=O)N[C@H](C(=O)N3C[C@H](O)C[C@H]3C(=O)NCc3ccc(-c4scnc4C)cc3)C(C)(C)C)nc3c2CCN(c2cccc4cccc(Cl)c24)C3)C[C@@H]1CC#N
DC50 [1]: 250 nM

Compound: Nc1ncnc2c1c(-c1ccc(Oc3ccccc3)cc1)nn2[C@@H]1CCCN(C(=O)c2cn(CCOCCOCCOCCCc3cccc4c3C(=O)N(C3CCC(=O)NC3=O)C4=O)nn2)C1 (stereo partly drawn)
DC50 [2]: 50 nM

pIC50 (20S proteasome): 7.05
Compound: CC[C@H]1C(=O)NC2([C@@H](O)[C@@H]3C=CCCC3)C(=O)O[C@@H]12 (stereo partly drawn)

Compound: COc1cc(/C=C2\SC(=O)N(CCOCCC(=O)N[C@@H](C(=O)N3C[C@H](O)C[C@H]3C(=O)NCc3ccc(-c4scnc4C)cc3)C(C)(C)C)C2=O)ccc1Oc1ccc(C#N)cc1C(F)(F)F
Activity (MDA-MB-231 [3]): 44% | Activity (MDA-MB-231 [4]): 39% | Activity (MDA-MB-231 [5]): 44%

Compound: Cn1c2c(c(=O)n(Cc3ccc(Cl)cc3)c1=O)CN(Cc1cccc(C#N)c1)CC2
pIC50 (SUM-159-PT [6]): 7.85 | INH (SUM-159-PT [7]): 30 nM

Compound: Cc1cccc(CN2CCc3c(c(=O)n(Cc4ccc(C(F)(F)F)cc4)c(=O)n3CCCN)C2)c1
pIC50 (SUM-159-PT [6]): 7.24

Compound: N#Cc1cccc(CN2CCC3=C(C2)C(=O)N(Cc2ccc(C(F)(F)F)cc2)C2=NCCN23)c1
pIC50 (SUM-159-PT [6]): 7.96

Compound: O=C1C2=C(CCN(Cc3ccccc3)C2)N2CCN=C2N1Cc1ccc(C(F)(F)F)cc1
pIC50 (OCI-AML-3): 7.22 | pIC50 (OCI-AML2): 7.12 | Activity (HCT-116): 10% | pIC50 (SUM-159-PT [6]): 7.11 | pIC50 [8]: 7.15

Compound: C#Cc1cccc(CN2CCC3=C(C2)C(=O)N(Cc2ccc(C)cc2)C2=NCCN23)c1
pIC50 (SUM-159-PT [6]): 7.00

pIC50 (20S proteasome): 7.05
Compound: CCCC[C@@H](C=O)NC(=O)[C@H](CC(C)C)NC(=O)[C@@H](CC(C)C)NC(=O)CC

Compound: N#Cc1cccc(CN2CCC3=C(C2)C(=O)N(Cc2ccc(Cl)cc2)C2=NCCN23)c1
pIC50 (SUM-159-PT [6]): 8.13
